Test results published in US10881623B2, “Compositions for the management of hyperglycemia and related conditions” (SAMI LABS LIMITED, priority 2017, dated 2021).

Legend:
Adipocytes = test: Glucose uptake in adipocytes; format: cell-based; conditions: compared to thymoquinone; FIG. 2
[1] = Anti-glycation, Ribose-BSA method, pentosidine AGE
Experimental: (§1) AGEs can be fluorescent as well as non fluorescent in nature. Typically the vesperlysine type of AGE have an excitation at 370-nm and emission at 440 nm, while pentosidine like AGE have an excitation at 335 nm and emission at 385 nm. The principle is based on the fact that ribose sugar and bovine serum albumin are mixed in specific ratio and incubated for 24 hours. Vesperlysine like AGE formed by the reaction was e estimated by the increase in fluorescence detected, at Ex/Em at 390/460 nm and pentosidines were detected at Ex/Em at 320/405 nm
(§2) Ribose—BSA method: 10 μl of various concentrations of samples were added to 40 μl of BSA (bovine serum albumin, 25 mg/ml stock) and 50 μl of D-Ribose (150 mg/ml stock) was added per well of black 96-well microplate and incubated for 24 h at 37° C. BSA was taken as the control. The AGEs (advanced glycation end product) formed were detected by the fluorescence at Ex/Em at 390/460 nm for vesperlysine and Ex/Em at 320/405 nm for pentosidine AGE.

[2] = system: Muscle cells (C2C12 myotubes); test: Glucose uptake (2-NBDG, flow cytometry) in differentiated C2C12 myotubes; format: cell-based; conditions: compared to thymoquinone; FIG. 2
Experimental: The skeletal muscle cell line C2C12 myoblasts (procured from ATCC) were maintained in DMEM supplemented with 10% Fetal Bovine Serum at 37° C. with 5% CO2. Twenty thousand cells per well were seeded in a 24 well plate. When the cells reached 80-90% confluence, differentiation was induced by replacing the growth medium with DMEM containing 1% horse serum. Experiments were performed in completely differentiated C2C12 myotubes after 4-5 days in differentiation medium. Cells were then treated with 0.5% BSA in low glucose media for 16 hours and washed with cold Krebs-Ringer phosphate buffer without glucose. Cells were then treated with different non cytotoxic concentrations of samples in low glucose DMEM media with or without insulin at a concentration of 0.1 μM for 30 minutes at 37° C. Cells were then washed with cold PBS and stained with 5 μM of a fluorescent D-glucose analog 2-[N-(7-nitrobenz-2-oxa-1,3-diazol-4-yl) amino]-2-deoxy-D-glucose (2-NBDG) for 15 minutes in dark followed by flow cytometric detection of fluorescence produced by the cells.

[3] = Anti-glycation, Ribose-BSA method, vesperlysine-like AGE
Experimental: as §1, §2

[4] = DPPH radical scavenging assay; conditions: concentration reducing DPPH absorbance by 50%
Experimental: DPPH is a stable free radical in a methanolic solution with an absorbance at 520 nm. If the free radicals are scavenged by an anti oxidant molecule, the resulting solution appears yellow. The hydrogen atoms or electrons donation ability of the extracellular metabolite was measured by the bleaching of purple coloured DPPH methanol solution.
Thymoquinone, Thymohydroquinone and the composition comprising thymohydroquinone were prepared in varying concentrations. For the DPPH radical scavenging assay, 20 μL of test material was mixed with 180 μL of DPPH in methanol in a 96 well plate following the method as described earlier (Clarke et al., 2013). The plate was kept in the dark for 15 min, after which the absorbance of the solution was measured at 540 nm using a microplate reader (TECAN Ltd, Männedorf, Switzerland). Blanks (DMSO, methanol) and standard (Trolox solution in DMSO) were recorded simultaneously. The extracts were screened with variable concentrations to establish the inhibition concentration (IC50, the concentration reducing DPPH absorbance by 50%).
The free radical scavenging activity was calculated as follows,
Where, • B=Absorbance of reference solution (OD of DPPH) • C=Absorbance of reference solution, blank (OD of Methanol only) • S=Absorbance of test solution • […]

TNF-α = TNF-α secretion by LPS-stimulated THP-1 cells (ELISA); format: cell-based, human; conditions: for inhibition at 0.03 µg/mL / inhibition at 0.06 µg/mL / inhibition at 0.13 µg/mL: Homo sapiens, THP-1, LPS 0.1 μg/mL, 24 hour; for inhibition at 0.03 µg/mL: 0.03 μg/mL; for inhibition at 0.06 µg/mL: 0.06 μg/mL; for inhibition at 0.13 µg/mL: 0.13 μg/mL
Experimental: Cells: THP1-human monocytes purchased from American Type Culture Collection (ATCC, Manassas, Va.) and maintained as a monolayer culture in Rosewell park memorial institute Medium (RMPI Life technologies, CA, USA.) supplemented with 10% (v/v) heat-inactivated foetal bovine serum (FBS; GIBCO/Invitrogen, Carlsbad, Calif.), 100 units/mL penicillin and 100 μg/mL streptomycin (Life technologies) at 37° C. in a humidified 5% CO2 incubator.
Reagents and buffers: Lipopolysaccharide (LPS, Sigma chemicals, USA), Phosphate buffered saline, RPMI, FBS
ELISA kit: Human TNF ELISA kit, Krishgen Biosciences, USA
Anti inflammatory activity was examined using human monocyte/macrophage cell line THP-Monocytes respond to lipopolysaccharides (LPS) by secreting proinflammatory cytokines. Tumour necrosis factor (TNF-α) is one of the principle cytokine which triggers a cascade of inflammatory reactions. The concentration of TNF-α was measured using an Enzyme linked Immunosorbent assay (ELISA). Reduction in TNF-α concentration indicates an anti inflammatory activity of the compound.
1×10^5 THP-1 cells were stimulated with 100 ng with lipopolysacharide (LPS, 0.1 μg/mL) to induce TNF-α secretion. Cells were pre treated with different concentrations of test materials (Thymoquinone, thymohydroquinone and a composition comprising thymohydroquinone) before LPS treatment. The cell supernatants were collected 24 hour after treatment and secreted TNF-α as estimated by cytokine ELISA as described by the manufacturer. Unstimulated cells were used as negative control. The limit of detection was <1 pg/mL.

α-glucosidase = target: T1, α-glucosidase (Saccharomyces cerevisiae, UniProt P53341); test: α-glucosidase inhibition (paranitrophenyl-α-d-glucopyranoside substrate); format: biochemical; conditions: enzyme 0.15 U/ml, substrate 1.25 mM, absorbance 405 nm
T1 construct: purchased Sigma-Aldrich G5003
Experimental: For glucosidase inhibition, α-glucosidase (Code G5003; Sigma-Aldrich, St. Louis, Mo., USA) was dissolved in 67 mM potassium phosphate buffer, pH 6.8, containing 8 containing 0.2% Bovine Serum Albumin (Sigma-Aldrich) & 0.02% sodium azide (Sigma-Aldrich) which was used as enzyme source. Paranitrophenyl-α-d-glucopyranoside (Sigma-Aldrich) was used as substrate. Thymoquinone, thymohydroquinone and composition containing thymohydroquinone were weighed prepared at concentration of 63, 125, 250 and 500 μg/ml and were made up with equal volumes of distilled water. 50 μl of said composition was incubated for 5 min with 50 μl enzyme source (0.15 U/ml). After incubation, 50 μl of substrate (1.25 mM) was added and further incubated for 20 min at room temperature. Presubstrate and post-substrate addition, absorbance was measured at 405 nm on a microplate reader (BMG FLUOstar OPTIMA Microplate Reader). The increase in absorbance on substrate addition was obtained. Each test was performed three times and the mean absorption was used to calculate percentage α-glucosidase inhibition. Acarbose was used as positive control with various concentrations. The inhibitory activities of varying concentrations of said composition were expressed as 100 minus the absorbance difference (%) of the said composition relative to the absorbance change of the negative control (i.e., water used as the test solution). […]

T1 sequence (P53341 whole entry): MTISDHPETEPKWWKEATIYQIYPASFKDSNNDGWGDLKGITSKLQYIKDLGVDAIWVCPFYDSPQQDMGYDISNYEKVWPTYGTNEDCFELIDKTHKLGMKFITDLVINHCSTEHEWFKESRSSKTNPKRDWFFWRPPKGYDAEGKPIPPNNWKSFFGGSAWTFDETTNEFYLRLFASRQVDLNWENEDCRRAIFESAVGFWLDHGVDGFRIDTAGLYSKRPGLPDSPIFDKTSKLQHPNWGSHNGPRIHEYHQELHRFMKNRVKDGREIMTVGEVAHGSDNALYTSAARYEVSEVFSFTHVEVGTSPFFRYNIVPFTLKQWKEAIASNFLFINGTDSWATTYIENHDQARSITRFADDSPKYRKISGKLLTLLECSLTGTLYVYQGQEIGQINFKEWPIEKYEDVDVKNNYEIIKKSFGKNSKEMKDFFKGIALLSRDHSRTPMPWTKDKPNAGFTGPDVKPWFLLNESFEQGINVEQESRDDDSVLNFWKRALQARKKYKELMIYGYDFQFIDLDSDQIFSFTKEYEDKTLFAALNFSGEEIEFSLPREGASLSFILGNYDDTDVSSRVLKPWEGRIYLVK

With `Cc1cc(O)c(C(C)C)cc1O` [Thymohydroquinone, thymohydroquinone] the “glucose uptake in Adipocytes” value (Adipocytes) was “enhanced glucose uptake”, the “IC50, Inhibition of pentosidine Ex/Em at 320/405 nM” value [1] was 65.89 µg/mL and the “% Inhibition of pentosidine Ex/Em at 320/405 nm” value (shortened to “% Inhibition … at 320/405 nm”) ([1]; 15.63 μg/mL) was 5.39%. The “% Inhibition … at 320/405 nm” value ([1]; 31.25 μg/mL) was 28.73%, the “% Inhibition … at 320/405 nm” value ([1]; 62.5 μg/mL) was 49.55% and the “% Inhibition … at 320/405 nm” value ([1]; 125 μg/mL) was 68.33%. For the same compound, the “% Inhibition … at 320/405 nm” value ([1]; 250 μg/mL) was 89.31%, the “glucose uptake in Muscle cells” value [2] was “enhanced glucose uptake” and the “IC50, inhibition of vesperlysine Ex/Em at 390/460 nM” value [3] was 108.30 µg/mL. For the same compound, the “% inhibition of vesperlysine Ex/Em at 390/460 nm” value (“% inhibition … at 390/460 nm” below) ([3]; 15.63 μg/mL) was 23.03%, the “% inhibition … at 390/460 nm” value ([3]; 31.25 μg/mL) was 34.06% and the “% inhibition … at 390/460 nm” value ([3]; 62.5 μg/mL) was 43.83%. For the same compound, the “% inhibition … at 390/460 nm” value ([3]; 125 μg/mL) was 52.28%, the “% inhibition … at 390/460 nm” value ([3]; 250 μg/mL) was 60.42% and the “IC50 of DPPH scavenging” value [4] was 1.78 µg/mL. The inhibition at 0.03 µg/mL (TNF-α) was 2.5%, the inhibition at 0.06 µg/mL (TNF-α) was 4.5% and the inhibition at 0.13 µg/mL (TNF-α) was 11.9%. For the same compound, the cell viability (TNF-α; THP-1 cells in the TNF-α test) was “without affecting the cell viability” and the IC50 (α-glucosidase) was 433 µM.

With `CC1=CC(=O)C(C(C)C)=CC1=O` [Thymoquinone, thymoquinone, reference compound] the “IC50, Inhibition of pentosidine Ex/Em at 320/405 nM” value [1] was 142.70 µg/mL, the “% Inhibition … at 320/405 nm” value ([1]; 15.63 μg/mL) was 0% and the “% Inhibition … at 320/405 nm” value ([1]; 31.25 μg/mL) was 23.59%. For the same compound, the “% Inhibition … at 320/405 nm” value ([1]; 62.5 μg/mL) was 0.06%, the “% Inhibition … at 320/405 nm” value ([1]; 125 μg/mL) was 44.57% and the “% Inhibition … at 320/405 nm” value ([1]; 250 μg/mL) was 61.80%. The “IC50, inhibition of vesperlysine Ex/Em at 390/460 nM” value [3] was 157.80 µg/mL, the “% inhibition … at 390/460 nm” value ([3]; 15.63 μg/mL) was 0% and the “% inhibition … at 390/460 nm” value ([3]; 31.25 μg/mL) was 38.55%. The “% inhibition … at 390/460 nm” value ([3]; 62.5 μg/mL) was 40.81%, the “% inhibition … at 390/460 nm” value ([3]; 125 μg/mL) was 44.54% and the “% inhibition … at 390/460 nm” value ([3]; 250 μg/mL) was 56.69%. For the same compound, the inhibition at 0.03 µg/mL (TNF-α) was 22%, the inhibition at 0.06 µg/mL (TNF-α) was 31% and the inhibition at 0.13 µg/mL (TNF-α) was 35%. It also gave an IC50 (α-glucosidase) of 2480 µM.
